Holding throughout (assay type): in vivo
What all share (conditions): 1000 g/ha, evaluated after 13 days

In assay [1] the test system is Setaria faberi (SETFA). The assay can be described thus: Pre-emergence Test.
Assay [2] concerns Zea mays (ZEAMX). The assay can be described thus: Pre-emergence Test.
In assay [3] the test system is Zea mays (ZEAMX). The assay can be described thus: Post-emergence Test. As for the experimental part:
(§1) Seeds of a variety of test species are sown in standard soil in pots (Abutilon theophrasti (ABUTH), Ipomoea hederacea (IPOHE). Setaria faberi (SETFA), Echinochloa crus-galli (ECHCG), Zea mays (ZEAMX), Amaranthus retoflexus (AMARE), Solanum nigrum (SOLNI), Lolium perenne (LOLPE), Amaranthus palmeri (AMAPA)). After 8 days cultivation under controlled conditions in a glasshouse (at 24° C./16° C., day/night-; 14 hours light; 65% humidity), the plants are sprayed with an aqueous spray solution derived from the formulation of the technical active ingredient in acetone/water (50:50) solution containing 0.5% Tween 20 (polyoxyethylene sorbitan monolaurate, CAS RN 9005-64-5). Compounds are applied at 1000 g/ha unless otherwise stated. The test plants are then grown in a glasshouse under controlled conditions in a glasshouse (at 24° C./16° C., day/night; 14 hours light; 65% humidity) and watered twice daily. After 13 days the test is evaluated for the percentage damage caused to the plant. The biological activities are shown in the following table on a five-point scale (5=81-100%; 4=61-80%; 3=41-60%; 2=21-40%; 1=0-20%; -=not tested).

The subject of assay [4] is Lolium perenne (LOLPE). Description: Post-emergence Test. How it is done: as §1
Assay [5] deals with Echinochloa crus-galli (ECHCG). Description: Post-emergence Test. How it is done: as §1
Assay [6] has as its system Solanum nigrum (SOLNI). The assay can be described thus: Post-emergence Test. As for the experimental part:
as §1

For assay [7], the system named is Amaranthus retoflexus (AMARE). The assay can be described thus: Post-emergence Test. How it is done:
as §1

For assay [8], the system named is Ipomoea hederacea (IPOHE). Description: Post-emergence Test. As for the experimental part:
as §1

Assay [9] deals with Setaria faberi (SETFA). Description: Post-emergence Test. As for the experimental part: as §1
The test system of assay [10] is Abutilon theophrasti (ABUTH). Description: Post-emergence Test. As for the experimental part: as §1
The test system of assay [11] is Abutilon theophrasti (ABUTH). Description: Pre-emergence Test.
Assay [12] has as its system Ipomoea hederacea (IPOHE). Description: Pre-emergence Test.
For assay [13], the system named is Amaranthus retoflexus (AMARE). Description: Pre-emergence Test.
Assay [14] deals with Solanum nigrum (SOLNI). The assay can be described thus: Pre-emergence Test.
For assay [15], the system named is Echinochloa crus-galli (ECHCG). Description: Pre-emergence Test.
Assay [16] relates to Lolium perenne (LOLPE). The assay can be described thus: Pre-emergence Test.

The values that follow come from patent US20260001847A1, “HERBICIDAL QUINOLONE DERIVATIVES” (SYNGENTA CROP PROTECTION AG, priority 2022, published 2026).

Take `CCn1c(-c2ccc(Cl)c(Cl)c2)c(C(=O)O)c(=O)c2ccccc21` [Compound 3, 2-(3,4-dichlorophenyl)-1-ethyl-4-oxo-quinoline-3-carboxylic acid]: the “percentage damage caused to the plant, SETFA” value in assay [1] is recorded as 5 (5=81-100%); in [9], 4 (4=61-80%). The “percentage damage caused to the plant, ZEAMX” value in assay [2] is listed as 3 (3=41-60%); in assay [3], 1 (1=0-20%). For the same compound, the figures for the “percentage damage caused to the plant, LOLPE” value in assay [4] and in assay [16] were 2 (2=21-40%) and 3 (3=41-60%), respectively. Also, the results for the “percentage damage caused to the plant, ECHCG” value in assay [5] and in assay [15] were 3 (3=41-60%) and 5 (5=81-100%), respectively. The “percentage damage caused to the plant, SOLNI” value in assay [6] and in [14] was 4 (4=61-80%) each time. For the same compound, the “percentage damage caused to the plant, AMARE” value in assay [7] is recorded as 3 (3=41-60%); in [13], 2 (2=21-40%). For the same compound, the “percentage damage caused to the plant, IPOHE” value was 4 (4=61-80%) in assay [8] and 3 (3=41-60%) in [12]. The entries for the “percentage damage caused to the plant, ABUTH” value in assay [10] and in assay [11] were 2 (2=21-40%) and 1 (1=0-20%), respectively.
